Experimental data taken from patent US8207122B2, “Anti-cancer bioactive peptides isolated from crude venom of Xinjiang Lycosa singoriensis” (Xiamen Bioway Biotech Co., Limited, priority 2007, dated 2012).
Where a SMILES comes first, the peptide text is derived from it. Where no end group is shown, it is not given here.

Tests used:
[1] = tested on: Hela cells; experiment: Comparison of inhibitory activity of peptides on Hela cells; assay type: cell-based; details: for activity compared with SEQ ID NO. 1: anti-cancer activity, in words
Experimental: The above-mentioned experiments have verified the peptide has strong inhibition on the growth of cancer cells and solid tumors. In order to study the inhibition degree of difference sequences (SEQ. Nos. 1-5) of the peptide on tumor cells, comparative experiments of measuring the activity of Hela cells were conducted (as shown in FIG. 7).
Nos. 1-4, at a concentration of 40 μmol/L, the inhibition rate on Hela cells was about 90%, at 20 μmol/L, about 50%, at 5 μmol/L, only 2%. Thus, the inhibition degree of SEQ. Nos. 1-4 on Hela cells was basically equal. However, for SEQ. No. 5, at a concentration of 40 μmol/L, 20 μmol/L, and 5 μmol/L, the inhibition rate on Hela cells was more than 80%. Compared with that of SEQ. Nos. 1-4, the inhibition degree of SEQ. No. 5 had been increased by about 10 times. No. 1 and SEQ. No. 5 could dissolve 19% and 37% red cells respectively, which meant the hemolytic activity of SEQ. No. 5 was […] than that of SEQ. No. 1.

[2] = Toxicity on a whole animal, subcutaneous injection; assay type: in vivo; details: 200 mg/Kg body weight, mice, within 48 hours

CC[C@H](C)[C@H](NC(=O)[C@H](Cc1ccccc1)NC(=O)[C@H](CCCCN)NC(=O)[C@H](C)NC(=O)[C@@H](NC(=O)[C@H](CO)NC(=O)[C@H](CCCCN)NC(=O)[C@H](CCSC)NC(=O)[C@H](C)NC(=O)[C@@H](N)CCCCN)[C@@H](C)CC)C(=O)N[C@@H](C)C(=O)N[C@@H](CCCCN)C(N)=O [SEQ. No. 5, Lys Ala Met Lys Ser Ile Ala Lys Phe Ile Ala Lys-NH2] (H-KAMKSIAKFIAK-NH2)
inhibition rate on Hela cells ([1]; 5 μmol/L): more than 80% | inhibition rate on Hela cells ([1]; 20 μmol/L): more than 80% | inhibition rate on Hela cells ([1]; 40 μmol/L): more than 80%

Lys Gly Trp Phe Lys Ala Met Lys Ser Ile Ala Lys Phe Ile Ala Lys Glu Lys Leu Lys Glu His Leu-NH2 (KGWFKAMKSIAKFIAKEKLKEHL-NH2) [SEQ ID NO. 3]
activity compared with SEQ ID NO. 1 [1]: same activity

Lys Gly Trp Phe Lys Ala Met Lys Ser Ile Ala Lys Phe Ile Ala Lys Glu Lys Met Lys Glu His Leu-NH2 (KGWFKAMKSIAKFIAKEKMKEHL-NH2; listed as Lycosa singoriensis) [SEQ ID NO. 2]
activity compared with SEQ ID NO. 1 [1]: same activity

WFKAMKSIAKFIAKEKLK [SEQ ID NO. 4]
activity compared with SEQ ID NO. 1 [1]: same activity

CC[C@H](C)[C@H](NC(=O)[C@H](Cc1ccccc1)NC(=O)[C@H](CCCCN)NC(=O)[C@H](C)NC(=O)[C@@H](NC(=O)[C@H](CO)NC(=O)[C@H](CCCCN)NC(=O)[C@H](CCSC)NC(=O)[C@H](C)NC(=O)[C@H](CCCCN)NC(=O)[C@H](Cc1ccccc1)NC(=O)[C@H](Cc1c[nH]c2ccccc12)NC(=O)CNC(=O)[C@H](CCCCN)NC(=O)[C@@H](N)CCCNC(=N)N)[C@@H](C)CC)C(=O)N[C@@H](C)C(=O)N[C@@H](CCCCN)C(=O)N[C@@H](CCC(=O)O)C(=O)N[C@@H](CCCCN)C(=O)N[C@@H](CC(C)C)C(=O)N[C@@H](CCCCN)C(=O)N[C@@H](CCC(=O)O)C(=O)N[C@@H](Cc1c[nH]cn1)C(=O)N[C@@H](CC(C)C)C(N)=O [SEQ. No. 1] (H-RKGWFKAMKSIAKFIAKEKLKEHL-NH2)
toxic reaction [2]: no obvious toxic reaction was observed
